Experimental data reported in patent US11766435B2, “N3-substituted iminopyrimidinones as antimalarial agents” (Merck Sharp & Dohme LLC, priority 2016, dated 2023).

Test system: asexual P. falciparum 3D7 parasites
Assay: P. falciparum growth inhibition assay measuring LDH activity (Assay 1)
Format: cell-based
Conditions: 3D7 strain, parasitized red blood cells, 72 h incubation, LDH activity read by absorbance at 650 nm
Description: A modified version of the assay described in Gamo, F. J., Sanz, L. M., Vidal, J., de Cozar, C., Alvarez, E., Lavandera, J. L., Vanderwall, D. E., Green, D. V., Kumar, V., Hasan, S., Brown, J. R., Peishoff, C. E., Cardon, L. R., Garcia-Bustos, J. F., Nature, 465 (2010) 305-310 (Gamo et al.) was used to assess the activity of compounds against asexual P. falciparum 3D7 parasites. Compounds were pre-dispensed in 384-well plates, RPMI/AlbuMAX growth media was added and P. falciparum inoculated. Plates were incubated for 72 h and then frozen at −80° C. overnight. Lactate dehydrogenase (LDH) activity was quantified with the modified cofactor 3-acetylpyridine adenine dinucleotide (APAD) (Sigma Aldrich) by measuring absorbance of the tetrazolium indicator nitro blue tetrazolium (NBT) (Sigma Aldrich) at 650 nm.
An inoculum of synchronous P. falciparum (3D7 strain) parasitized red blood cells (PRBC) at 0.7% parasitaemia and 2% haematocrit in RPMI-1640, 5% AlbuMAX, 2% D-sucrose, 0.3% glutamine and 150 μM hypoxanthine was used for the assay.
Compound master plates (384-well) were prepared by a 10 pt serial dilution of compounds, from 1 mM to 50.8 nM, in columns 3-12 and 13-22. DMSO was dispensed into columns 1 and 23 of the compound master plate to be used as the positive growth control (100% viability). […] Intermediate compound dilution plates were prepared by dispensing 1 μl from each well of the compound master plate into 11.5 μl of RPMI/AlbuMAX growth media. Duplicate assay plates (384-well) were then prepared by dispensing 0.5 μL of compound from the intermediate dilution plates into 9.5 μl of RPMI/AlbuMAX growth media. The parasite inoculum (30 μL) was dispensed into the assay plates containing compounds using a Multidrop dispenser (Thermo Scientific) such that the final assay volume was 40 μL and final compound concentration was 1 μM-0.05 nM (the volume of compound addition can be adjusted to the preferred and agreed screening concentration). The final DMSO concentration was 0.1% (ideally 0.2% to limit toxicity to parasites), but this is dependent on volume of compound DMSO stock solution that can be supplied. Plates were incubated at 37° C. for 72 h in an atmosphere of 5% CO2, 5% O2, […].
After 72 h of incubation, plates were frozen at −80° C. overnight and then thawed at room temperature for at least 4 h. To evaluate LDH activity, 45 μL of freshly made reaction mix (174 mM sodium L-lactate (Sigma Aldrich), 214 μM 3-acetyl pyridine adenine dinucleotide (APAD) (Sigma Aldrich), 270 μM nitro blue tetrazolium chloride (NBT) (Sigma Aldrich), 4.35 U/mL diaphorase (from Clostridium kluyveri) (Sigma Aldrich), 0.7% Tween 20, 100 mM Tris-HCl pH 7.5) was dispensed using a Multidrop dispenser (Thermo Scientific). Plates were shaken to ensure mixing and absorbance at 650 nm was monitored using a Perkin Elmer Envision plate reader after 30 min of incubation at room temperature. Data were normalized to percent growth inhibition using positive and negative controls, and analysed using TIBCO Spotfire software. […]

First: CC(C)[C@]1(C)CC(=O)N(C(c2ccccc2)c2cccc(C(=O)N[C@@H](C)c3ccccc3)c2)C(=N)N1 (stereo partly shown) [Compound 55]
Second: C[C@H](NC(=O)c1cccc(C(c2ccccc2)N2C(=N)NC(C)(C)CC2=O)c1)c1ccccc1 (single isomer, unassigned) [Compound 28]
The IC50 of the first is lower: 0.0035 µM for the first, greater than 1 µM for the second. The first is the more potent here.

CC(C)[C@]1(C)CC(=O)N(Cc2cc(F)cc(C(=O)NC(CCN(C)C)c3ccccc3)c2)C(=N)N1 (stereo partly shown) [Compound 34] and CC(C)[C@]1(C)CC(=O)N(C(c2ccccc2)c2cccc(C(=O)N[C@@H](C)c3ccccc3)c2)C(=N)N1 (stereo partly shown) [Compound 56] are within 1.5-fold of each other in IC50: 0.31 µM for the first, 0.36 µM for the second.

First: CC(C)[C@]1(C)CC(=O)N(C(c2ccccc2)c2cccc(C(=O)N[C@@H](C)c3ccccc3)c2)C(=N)N1 (stereo partly shown) [Compound 1]
Second: C[C@H](NC(=O)c1cccc(C(c2ccccc2)N2C(=N)NC(C)(C)CC2=O)c1)c1ccccc1 (single isomer, unassigned) [Compound 27]
The IC50 of the first is 4.7-fold lower: 0.003 µM for the first, 0.014 µM for the second. The first is the more potent here.

Same assay, conditions: Plasmodium falciparum, 3D7, Erythrocyte, 72 h, 3D7 strain, parasitized red blood cells, 72 h incubation, LDH activity read by absorbance at 650 nm

Compared with CC(C)[C@]1(C)CC(=O)N(Cc2cc(C(=O)N[C@@H](C)c3ccccc3)ccc2F)C(=N)N1 [Compound 18], CC(C)[C@]1(C)CC(=O)N(Cc2cc(F)cc(C(=O)N[C@H](C)c3ccccc3)c2)C(=N)N1 [Compound 23] is 2.6-fold higher in IC50: 0.0129 µM for the first, 0.033 µM for the second.

First: CC(C)[C@]1(C)CC(=O)N([C@@H](C)c2cccc(N3C[C@H](c4ccccc4)CC3=O)c2)C(=N)N1 [Compound 26]
Second: CC(C)[C@]1(C)CC(=O)N([C@H](C)c2cccc(N3C[C@H](c4ccccc4)CC3=O)c2)C(=N)N1 [Compound 20]
The IC50 of the first is 26-fold higher: 0.371 µM for the first, 0.014 µM for the second. The second is the more potent here.

Going from COCC[C@H](NC(=O)c1cc(F)cc(CN2C(=N)NC3(CCCC3)CC2=O)c1)c1ccccc1 [Compound 9] to C[C@H](NC(=O)c1cc(F)cc(CN2C(=N)NC3(CCCC3)CC2=O)c1)c1ccccc1 [Compound 32], the IC50 rises from 0.00419 µM to 0.5 µM (120-fold). The first is the more potent here.

Compared with CC(C)[C@]1(C)CC(=O)N(Cc2ccc(C(=O)NCc3ccc(F)cc3)cc2)C(=N)N1 [Compound 43], Cc1ccc(CNC(=O)c2ccc(CN3C(=N)N[C@](C)(C(C)C)CC3=O)cc2)cc1 [Compound 46] is 1.6-fold lower in IC50: 0.86 µM for the first, 0.55 µM for the second.

CC(C)[C@]1(C)CC(=O)N(Cc2cccc(N3C[C@@H](c4ccccc4)CC3=O)c2)C(=N)N1 [Compound 15] and CC(C)[C@]1(C)CC(=O)N([C@H](C)c2cccc(N3C[C@@H](c4ccccc4)CC3=O)c2)C(=N)N1 [Compound 16] are within 1.5-fold of each other in IC50: 0.00774 µM for the first, 0.00806 µM for the second.

Compared with CC(C)CC(c1ccc(C(F)(F)F)c(C(=O)N2Cc3nccnc3C2)c1)N1C(=N)N[C@](CC2CC2)(c2ccccc2)CC1=O (stereo partly shown) [Compound 2], N=C1N[C@](CC2CC2)(c2ccccc2)CC(=O)N1Cc1ccc(Br)c(C(=O)N2Cc3nccnc3C2)c1 [Compound 12] is 4.6-fold higher in IC50: 0.0013 µM for the first, 0.00601 µM for the second. The first is the more potent here.

First: C[C@H](NC(=O)c1cc(F)cc(CN2C(=N)NCC(c3ccccc3)C2=O)c1)c1ccccc1 (stereo partly shown) [Compound 49]
Second: C[C@H](NC(=O)c1cc(F)cc(CN2C(=N)N[C@@](C)(c3ccccc3)CC2=O)c1)c1ccccc1 [Compound 36]
The IC50 of the first is 5.9-fold higher: 0.77 µM for the first, 0.13 µM for the second.

CCC1(CC)CC(=O)N(Cc2cc(F)cc(C(=O)N3Cc4nccnc4C3)c2)C(=N)N1 [Compound 53] and CCC1(CC)CC(=O)N(Cc2cc(F)cc(C(=O)N3Cc4ccccc4C3)c2)C(=N)N1 [Compound 50] are within 1.5-fold of each other in IC50: 0.87 µM for the first, 0.61 µM for the second.

Going from CC(C)[C@]1(C)CC(=O)N(Cc2cc(F)cc(C(=O)NC3CCCCCC3)c2)C(=N)N1 [Compound 19] to CC(C)[C@]1(C)CC(=O)N(Cc2cc(F)cc(C(=O)N[C@H]3CCCc4ccccc43)c2)C(=N)N1 [Compound 4], the IC50 falls from 0.014 µM to 0.00168 µM (8.3-fold).

N=C1N[C@](CC2CC2)(c2ccccc2)CC(=O)N1Cc1ccc(-c2ccccc2)c(C(=O)N2Cc3nccnc3C2)c1 [Compound 8] and N=C1N[C@](CC2CC2)(c2ccccc2)CC(=O)N1Cc1ccc(-c2ccncc2)c(C(=O)N2Cc3nccnc3C2)c1 [Compound 7] are within 1.5-fold of each other in IC50: 0.00342 µM for the first, 0.00327 µM for the second.

COCC[C@H](NC(=O)c1cccc(CN2C(=N)N[C@](C)(C(C)C)CC2=O)c1)c1ccccc1 [Compound 10] and COCC[C@H](NC(=O)c1cc(F)cc(CN2C(=N)N[C@](C)(C(C)C)CC2=O)c1)c1ccccc1 [Compound 11] are within 1.5-fold of each other in IC50: 0.00534 µM for the first, 0.00567 µM for the second.

First: CC(C)[C@]1(C)CC(=O)N(Cc2ccc(C(=O)NCc3cccc(F)c3)cc2)C(=N)N1 [Compound 42]
Second: Cc1cccc(CNC(=O)c2ccc(CN3C(=N)N[C@](C)(C(C)C)CC3=O)cc2)c1 [Compound 45]
The IC50 of the first is 1.7-fold lower: 0.48 µM for the first, 0.81 µM for the second. The first is the more potent here.

First: CCC1(CC)CC(=O)N(Cc2cc(F)cc(C(=O)N(C)[C@@H](C)c3ccccc3)c2)C(=N)N1 [Compound 29]
Second: CCC1(CC)CC(=O)N(Cc2cc(F)cc(C(=O)N[C@@H](C)c3ccccc3)c2)C(=N)N1 [Compound 31]
The IC50 of the first is 9.3-fold higher: 0.87 µM for the first, 0.094 µM for the second. The second is the more potent here.

Going from COCCC[C@H](NC(=O)c1cc(F)cc(CN2C(=N)N[C@](C)(C(C)C)CC2=O)c1)c1ccccc1 [Compound 14] to CC(C)[C@]1(C)CC(=O)N(Cc2cc(F)cc(C(=O)NC(CCN(C)C)c3ccccc3)c2)C(=N)N1 (stereo partly shown) [Compound 30], the IC50 rises from 0.00662 µM to 0.26 µM (39-fold). The first is the more potent here.

CC(C)[C@]1(C)CC(=O)N(Cc2ccc(C(=O)NCc3ccccc3F)cc2)C(=N)N1 [Compound 41] and Cc1ccccc1CNC(=O)c1ccc(CN2C(=N)N[C@](C)(C(C)C)CC2=O)cc1 [Compound 44] are within 1.5-fold of each other in IC50: 0.43 µM for the first, 0.32 µM for the second.

Going from C[C@H](NC(=O)c1cc(F)cc(CN2C(=N)NC(c3ccccc3)(c3ccccc3)CC2=O)c1)c1ccccc1 [Compound 38] to C[C@H](NC(=O)c1cc(F)cc(CN2C(=N)NC3(CCC3)CC2=O)c1)c1ccccc1 [Compound 39], the IC50 rises from 0.57 µM to 1 µM (1.8-fold). The first is the more potent here.

Compared with CC(C)[C@]1(C)CC(=O)N(C(c2ccccc2)c2cccc(C(=O)N3Cc4nccnc4C3)c2)C(=N)N1 (stereo partly shown) [Compound 52], CC(C)[C@]1(C)CC(=O)N(C(c2ccccc2)c2cccc(C(=O)N3Cc4ccccc4C3)c2)C(=N)N1 (stereo partly shown) [Compound 51] is 5.5-fold lower in IC50: 0.27 µM for the first, 0.049 µM for the second. The second is the more potent here.

Compared with CC(C)[C@]1(C)CC(=O)N(Cc2cc(F)cc(C(=O)N[C@H]3CCc4ccccc43)c2)C(=N)N1 [Compound 6], CC(C)[C@]1(C)CC(=O)N(Cc2cc(F)cc(C(=O)N3Cc4ccccc4C3)c2)C(=N)N1 [Compound 35] is 130-fold higher in IC50: 0.00292 µM for the first, 0.39 µM for the second.

Going from C[C@H](NC(=O)c1cc(F)cc(CN2C(=N)NC3(CCCCC3)CC2=O)c1)c1ccccc1 [Compound 33] to C[C@H](NC(=O)c1cc(F)cc(CN2C(=N)NC3(CCC(C)(C)CC3)CC2=O)c1)c1ccccc1 [Compound 37], the IC50 rises from 0.26 µM to 0.62 µM (2.4-fold). The first is the more potent here.

Going from COCC[C@H](NC(=O)c1cc(F)cc(CN2C(=N)N[C@](C)(C(C)C)CC2=O)c1)c1ccc(F)cc1 [Compound 17] to COCC[C@H](NC(=O)c1cc(Cl)cc(CN2C(=N)N[C@](C)(C(C)C)CC2=O)c1)c1ccccc1 [Compound 5], the IC50 falls from 0.0106 µM to 0.00253 µM (4.2-fold).

First: CC(C)[C@]1(C)CC(=O)N(Cc2cc(F)cc(C(=O)N[C@@H](C)c3ccccc3)c2)C(=N)N1 [Compound 24]
Second: CC(C)[C@]1(C)CC(=O)N([C@H](C)c2cc(F)cc(C(=O)N[C@@H](C)c3ccccc3)c2)C(=N)N1 [Compound 13]
The IC50 of the first is 7.6-fold higher: 0.0488 µM for the first, 0.00643 µM for the second.

CC(C)[C@]1(C)CC(=O)N(Cc2ccc(C(=O)N[C@@H](C)c3ccccc3)cc2)C(=N)N1 [Compound 40] and CC(C)[C@]1(C)CC(=O)N(Cc2ccc(C(=O)N3Cc4ccccc4C3)cc2)C(=N)N1 [Compound 47] are within 1.5-fold of each other in IC50: 0.63 µM for the first, 0.49 µM for the second.

First: C[C@@]1(c2c(F)cc(F)cc2F)CC(=O)N(Cc2cccc(C(=O)N3Cc4ccccc4C3)c2)C(=N)N1 [Compound 25]
Second: CC1(C)CC(=O)N(C(c2ccccc2)c2cccc(C(=O)N3Cc4ccccc4C3)c2)C(=N)N1 (stereo not shown) [Compound 54]
The IC50 of the first is 2.8-fold lower: 0.139 µM for the first, 0.39 µM for the second. The first is the more potent here.

First: N=C1N[C@](CC2CC2)(c2ccccc2)CC(=O)N1Cc1ccc(C(F)(F)F)c(C(=O)N2CCn3c(nnc3C(F)(F)F)C2)c1 [Compound 22]
Second: CC(C)[C@]1(C)CC(=O)N(Cc2ccc(C(=O)N[C@@H](C)c3cccc(F)c3)s2)C(=N)N1 [Compound 3]
The IC50 of the first is 20-fold higher: 0.0272 µM for the first, 0.00137 µM for the second. The second is the more potent here.

Work on CC(C)[C@]1(C)CC(=O)N([C@H](C)c2cccc(C(=O)N[C@@H](C)c3cccc(Cl)c3)c2)C(=N)N1 [Compound 21] yielded an IC50 of 0.0199 µM.
